Drawing on ChEMBL document CHEMBL1681656, “Design and synthesis of AApeptides: a new class of peptide mimics” (Bioorg Med Chem Lett, 2011), this text covers IC50 and Stability for five compounds.

By IC50 is commonly meant the midpoint of a concentration-inhibition curve. A higher IC50 goes with a need for much substance.

A short description of data set [1]: Inhibition of GST-MDM2/His6-p53 interaction expressed in Escherichia coli after 1 hr by ELISA.
Data set [2] in a line: Chemical stability of the compound assessed as enzymatic hydrolysis in ammonium bicarbonate buffer at pH 7.8 after 24 hrs in presence of trypsin. The format is physicochemical. Particulars: isolated protein, pH 7.8, 24 h.
The nature of data set [3]: Chemical stability of the compound assessed as enzymatic hydrolysis in ammonium bicarbonate buffer at pH 7.8 after 24 hrs in presence of chymotrypsin. It counts as physicochemical. As to conditions: isolated protein, pH 7.8, 24 h.
Data set [4] is described as follows: Chemical stability of the compound assessed as enzymatic hydrolysis in ammonium bicarbonate buffer at pH 7.8 after 24 hrs in presence of pronase. It counts as physicochemical. As to conditions: pH 7.8, 24 h.

`CCC(=O)N(CCNC(=O)[C@H](Cc1c[nH]c2ccccc12)N(CCNC(=O)[C@H](Cc1ccccc1)N(CCNC(=O)[C@H](C)N(CCN)C(=O)CC(C)C)C(=O)CC)C(=O)CCO)[C@H](C(N)=O)C(C)C` had an IC50 in data set [1] above 1000 µM. As to `CC(=O)N[C@@H](CCC(N)=O)C(=O)N[C@@H](CCC(=O)O)C(=O)N[C@H](C(=O)N[C@@H](Cc1ccccc1)C(=O)N[C@@H](CO)C(=O)N[C@@H](CC(=O)O)C(=O)N[C@@H](CC(C)C)C(=O)N[C@@H](Cc1c[nH]c2ccccc12)C(=O)N[C@@H](CCCCN)C(=O)N[C@@H](CC(C)C)C(=O)N[C@@H](CC(C)C)C(=O)N1CCC[C@H]1C(=O)O)[C@@H](C)O`, the half-inhibitory concentration (IC50) in data set [1] worked out at 8.7 µM. Consider `CCC(=O)N(CCNC(=O)[C@H](CC(C)C)N(CCNC(=O)[C@H](Cc1c[nH]c2ccccc12)N(CCNC(=O)[C@H](Cc1ccccc1)N(CCNC(=O)[C@H](C)N(CCN)C(=O)CC)C(=O)CC)C(=O)CCO)C(=O)CCc1ccccc1)[C@@H](C)C(N)=O`, for which the Stability result in data set [2], in data set [3] and in data set [4] was “Stable” each time. Also, 120 µM corresponded to half-maximal inhibition in data set [1] (IC50). In the case of `CCC(=O)N(CCNC(=O)[C@H](CC(C)C)N(CCNC(=O)[C@H](Cc1c[nH]c2ccccc12)N(CCNC(=O)[C@H](Cc1ccccc1)N(CCN)C(=O)CC)C(=O)CCO)C(=O)CC)[C@@H](C)C(N)=O`, the IC50 in data set [1] was found to be 120 µM. `CCC(=O)N(CCNC(=O)[C@H](CC(C)C)N(CCNC(=O)[C@H](Cc1c[nH]c2ccccc12)N(CCNC(=O)[C@H](Cc1ccccc1)N(CCNC(=O)[C@H](C)N(CCN)C(=O)CC)C(=O)CC)C(=O)CCO)C(=O)CC)[C@@H](C)C(N)=O`: the IC50 in data set [1] was determined as 38 µM. Compared with the last compound, the IC50 is about 3.2-fold lower.
